Measurements reported in ChEMBL document CHEMBL5096149, “Recent Update on Targeting c-MYC G-Quadruplexes by Small Molecules for Anticancer Therapeutics” (J Med Chem, 2021).
Each block holds one compound with its values, some of them ahead of it.

What was measured:
HeLa [1] = experiment: Antiproliferative activity against human HeLa cells assessed as inhibition of cell growth incubated for 24 hrs by XTT assay; assay type: functional, cell-based
HCT-116 [2] = experiment: Antiproliferative activity against human HCT-116 cells assessed as inhibition of cell growth incubated for 24 hrs by XTT assay; assay type: functional, cell-based; conditions: HCT-116, 24 h
[3] = Antiproliferative activity against human Kidney epithelial cells assessed as inhibition of cell growth incubated for 24 hrs by XTT assay; assay type: toxicity, cell-based
Quadruplex DNA [4] = experiment: Binding affinity to c-MYC G-quadruplex DNA (unknown origin) assessed as association constant by fluorescence spectroscopy; assay type: nucleic-acid assay
Quadruplex DNA [5] = experiment: Thermal stabilization of c-MYC G-quadruplex DNA (unknown origin) assessed as change in melting temperature at 1:5 ratio by FRET melting assay; assay type: nucleic-acid assay
Quadruplex DNA [6] = experiment: Thermal stabilization of c-MYC G-quadruplex DNA (unknown origin) assessed as change in melting temperature at 1:5 ratio by circular dichroism spectroscopy; assay type: nucleic-acid assay
Quadruplex DNA [7] = experiment: Binding affinity to c-MYC G-quadruplex DNA (unknown origin) assessed as first order binding constant by surface plasmon resonance analysis; assay type: nucleic-acid assay
Raji = experiment: Cytotoxicity against human Raji cells assessed as reduction in cell viability by MTS assay; assay type: functional, cell-based
CA46 = experiment: Cytotoxicity against human CA46 cells assessed as reduction in cell viability by MTS assay; assay type: functional, cell-based
Quadruplex DNA [8] = experiment: Binding affinity to c-MYC G-quadruplex DNA (unknown origin) assessed as second order binding constant by surface plasmon resonance analysis; assay type: nucleic-acid assay
Quadruplex DNA [9] = experiment: Thermal stabilization of c-MYC G-quadruplex (Pu47) DNA (unknown origin) assessed as change in melting temperature at 1:5 ratio by FRET melting assay; assay type: nucleic-acid assay
Quadruplex DNA [10] = experiment: Thermal stabilization of c-MYC G-quadruplex DNA (unknown origin) assessed as change in melting temperature at 1:10 ratio by FRET melting assay; assay type: nucleic-acid assay
HCT-116 [11] = experiment: Cytotoxicity against human HCT-116 cells assessed as reduction in cell viability incubated for 24 hrs by MTT assay; assay type: functional, cell-based; conditions: HCT-116, 24 h
Quadruplex DNA [12] = experiment: Binding affinity to c-MYC G-quadruplex DNA (unknown origin) assessed as association rate constant by isothermal titration calorimetry method; assay type: nucleic-acid assay
Quadruplex DNA [13] = experiment: Binding affinity to c-MYC G-quadruplex DNA (unknown origin) assessed as association rate constant by UV-Vis spectroscopy; assay type: nucleic-acid assay
SMMC-7721 = experiment: Antitumor activity against human SMMC-7721 cells xenografted in mouse model assessed as tumor growth inhibition at 20 mg/kg,ip administrated for 3 weeks; assay type: functional; conditions: SMMC-7721, 504 h
[14] = Antiproliferative activity against human Kidney epithelial cells assessed as inhibition of cell growth by XTT assay; assay type: toxicity, cell-based
A549 = experiment: Antiproliferative activity against human A549 cells assessed as inhibition of cell growth by XTT assay; assay type: functional, cell-based
HeLa [15] = experiment: Antiproliferative activity against human HeLa cells assessed as inhibition of cell growth by XTT assay; assay type: functional, cell-based
[16] = Cytotoxicity against mouse C2C12 cells assessed as reduction in cell viability incubated for 24 hrs by MTT assay; assay type: toxicity, cell-based
HepG2 = experiment: Cytotoxicity against human HepG2 cells assessed as reduction in cell viability incubated for 24 hrs by MTT assay; assay type: functional, cell-based; conditions: HepG2, 24 h
MCF7 = experiment: Cytotoxicity against human MCF7 cells assessed as reduction in cell viability incubated for 24 hrs by MTT assay; assay type: functional, cell-based; conditions: MCF7, 24 h
Quadruplex DNA [17] = experiment: Binding affinity to c-MYC G-quadruplex (Pu22) DNA (unknown origin) assessed as association rate constant by isothermal titration calorimetry method; assay type: nucleic-acid assay
Quadruplex DNA [18] = experiment: Binding affinity to c-MYC G-quadruplex (Pu22) DNA (unknown origin) assessed as association constant by fluorescence spectroscopy; assay type: nucleic-acid assay
Quadruplex DNA [19] = experiment: Binding affinity to c-MYC G-quadruplex DNA (unknown origin) assessed as association rate constant by fluorometric titration method; assay type: nucleic-acid assay
Quadruplex DNA [20] = experiment: Thermal stabilization of c-MYC G-quadruplex DNA (unknown origin) assessed as change in melting temperature at 1:2 ratio by circular dichroism spectroscopy; assay type: nucleic-acid assay

IC50 (HeLa [1]): 3.4 µM
IC50 (HCT-116 [2]): 3.2 µM
Ka (Quadruplex DNA [4]): 4.76 10^6/M
ΔTm (Quadruplex DNA [5]): 15.8 °C
SMILES: CN(C)CCCNC(=O)c1ccc(-n2cc(-c3ccc4c(c3)c3ccccc3n4CCCN(C)C)nn2)cc1
IC50 at 24 h [3]: > 30 µM

ΔTm (Quadruplex DNA [6]): 7.8 °C
Ka (Quadruplex DNA [4]): 1 10^5/M
SMILES: Nc1nc(-c2ccccc2)c2c(n1)-c1cc(OCCN3CCCC3)ccc1C2=O

K (Quadruplex DNA [7]): 1 10^7/M
K (Quadruplex DNA [8]): 0.7 10^6/M
ΔTm (Quadruplex DNA [9]): 21 °C
SMILES: Cc1c2ccncc2c(C)c2c1[nH]c1ccc(OCCN(C)C)cc12
IC50 (Raji): 2.6 µM
IC50 (CA46): 13 µM

ΔTm (Quadruplex DNA [10]): 19.3 °C
Ka (Quadruplex DNA [4]): 5.9 10^6/M
SMILES: CN(C)CCCNC(=O)c1ccc(-n2cc(-c3ccc4c(c3)c3ccccc3n4-c3ccc(C(=O)NCCCN(C)C)cc3)nn2)cc1
IC50 (HCT-116 [11]): 2.1 µM

Ka (Quadruplex DNA [12]): 1.3 10^7/M
Ka (Quadruplex DNA [13]): 2.38 10^7/M
Ka (Quadruplex DNA [4]): 2.31 10^7/M
SMILES: C[n+]1cccc(-c2cc3c4cc(-c5ccc[n+](C)c5)c5nc(C(F)(F)C(F)(F)C(F)(F)F)nc6c(-c7ccc[n+](C)c7)cc(c7cc(-c8ccc[n+](C)c8)c8nc(C(F)(F)C(F)(F)C(F)(F)F)nc2c8c37)c4c56)c1

SMILES: CN(C)CCCNCCC(=O)Nc1ccc(C(=O)Nc2cc(Cl)ccc2-c2nc(NCCCN(C)C)c3ccccc3n2)cc1
inhibition in vivo at 20 mg/kg (SMMC-7721): 58.2%

IC50 (A549): 3.2 µM
IC50 (HeLa [15]): 3.8 µM
Ka (Quadruplex DNA [4]): 4 10^6/M
ΔTm (Quadruplex DNA [5]): 22 °C
SMILES: CN(C)CCCNC(=O)c1csc(NC(=O)c2csc(NC(=O)c3csc(N)n3)n2)n1
IC50 [14]: > 50 µM

Ka (Quadruplex DNA [4]): 3.3 10^6/M
ΔTm (Quadruplex DNA [5]): 22.7 °C
SMILES: CN(C)CCCNC(=O)c1ccc(-n2cc(-c3ccc4c(c3)c3cc(-c5cn(-c6ccc(C(=O)NCCCN(C)C)cc6)nn5)ccc3n4CCCN(C)C)nn2)cc1
IC50 (HCT-116 [11]): 8.2 µM
IC50 at 24 h [16]: > 45 µM
IC50 (HepG2): 4.3 µM
IC50 (MCF7): 6.8 µM

Ka (Quadruplex DNA [17]): 9.53 10^4/M
Ka (Quadruplex DNA [18]): 8.33 10^5/M
SMILES: C(=N\Nc1nc(Nc2ccccc2)nc(Nc2ccccc2)n1)/c1c2ccccc2cc2ccccc12

Ka (Quadruplex DNA [4]): 1.3 10^5/M
ΔTm (Quadruplex DNA [5]): 15.3 °C
SMILES: C/C(=N/Nc1nc2ccccc2s1)c1ccc(-c2cccc(C(=O)NCCCN(C)C)c2)o1

Ka (Quadruplex DNA [19]): 7.4 10^7/M
ΔTm (Quadruplex DNA [20]): 33.9 °C
SMILES: CN(C)c1ccc2cc3c([n+](CCCCCCCCNC(=O)c4ccc(I)cc4)c2c1)C=CCC3
